Laboratory results from patent publication US10597388B2, “Pyridazinone herbicides” (FMC CORPORATION, priority 2014, dated 2020).

How the values were obtained:
Assay type in all cases: in vivo
[1] = system: barnyardgrass (Echinochloa crus-galli); test: Test A greenhouse herbicide test, pre- and postemergence
Outline: (§1)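 Seeds sown in loam–sand blend got a preemergence directed soil spray of compound in non-phytotoxic solvent with surfactant. Postemergence treatment was given at 2–10 cm, one- to two-leaf stage. After ~10 d in greenhouse, injury was rated visually vs untreated controls, 0 (no effect) to 100 (complete control).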

corn (Zea mays) = test: as above; conditions: Postemergence; for Plant response rating, Corn: 125 g ai/ha; for Corn plant response rating: 500 g ai/ha, 0 to 100 scale, 0 is no effect, 100 is complete control
Outline: as §1

[2] = system: foxtail, giant (giant foxtail, Setaria faberii); test: as above
Outline: as §1

kochia (Kochia scoparia) [3] = test: as above
Outline: as §1

[4] = system: pigweed (Amaranthus retroflexus); test: as above
Outline: as §1

[5] = system: ragweed (common ragweed, Ambrosia elatior); test: as above
Outline: as §1

[6] = system: wheat (Triticum aestivum); test: as above; conditions: Postemergence; for Plant response rating, Wheat: 125 g ai/ha; for Wheat plant response rating: 500 g ai/ha, 0 to 100 scale, 0 is no effect, 100 is complete control
Outline: as §1

[7] = system: chickweed (common chickweed, Stellaria media); test: Test C greenhouse herbicide test, postemergence
Outline: (§2)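 Steps: pot plants in peat-based medium; spray postemergence at 1- to 4-leaf stage; hold in greenhouse 13 to 15 d; score visually against controls from 0 (no effect) to 100 (complete control).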

kochia (Kochia scoparia) [8] = test: Test C greenhouse herbicide test, postemergence
Outline: as §2

[9] = system: oat, wild (wild oat, Avena fatua); test: Test C greenhouse herbicide test, postemergence
Outline: as §2

[10] = Postemergence, 125 g ai/ha, visual rating after approx. 10 d, 0 to 100 scale (0 no effect, 100 complete control)
[11] = Postemergence, 500 g ai/ha, 0 to 100 scale, 0 is no effect, 100 is complete control
[12] = Preemergence, 125 g ai/ha, 0 to 100 scale where 0 is no effect and 100 is complete control
[13] = Preemergence, 500 g ai/ha, 0 to 100 scale, 0 no effect, 100 complete control
[14] = visual rating after approx. 10 d, 0 to 100 scale (0 no effect, 100 complete control)
[15] = Postemergence, 31 g ai/ha, 0 to 100 scale (0 no effect, 100 complete control)
[16] = Postemergence, 125 g ai/ha, scale 0 to 100, 0 is no effect, 100 is complete control
[17] = Postemergence, 250 g ai/ha, scale 0 to 100, 0 no effect, 100 complete control, 13 to 15 d
[18] = postemergence, 62 g ai/ha, scale 0 to 100, 0 no effect, 100 complete control
[19] = Postemergence, 125 g ai/ha, 0 to 100 scale where 0 is no effect and 100 is complete control
[20] = 0 to 100 scale where 0 is no effect and 100 is complete control

Row | SMILES | Barnyardgrass plant response rating [1, 11] | Barnyardgrass plant response rating [1, 12] | Plant response rating, Barnyardgrass [1, 13] | Corn plant response rating (corn (Zea mays)) | Foxtail, Giant plant response rating [2, 11] | Foxtail, Giant plant response rating [2, 12] | Plant response rating, Foxtail, Giant [2, 13] | Kochia plant response rating (kochia (Kochia scoparia) [3]; [11]) | Kochia plant response rating (kochia (Kochia scoparia) [3]; [12]) | Plant response rating, Kochia (kochia (Kochia scoparia) [3]; [13]) | Pigweed plant response rating [4, 11] | Pigweed plant response rating [4, 12] | Plant response rating, Pigweed [4, 13] | Ragweed plant response rating [5, 11] | Ragweed plant response rating [5, 12] | Plant response rating, Ragweed [5, 13] | Wheat plant response rating [6] | Chickweed plant response rating [7, 15] | Plant response rating, Chickweed [7, 16] | Plant response rating, Chickweed [7, 17] | other results
1 | Cn1nc(Br)c(O)c(-c2cccc3ccccc23)c1=O [Compound 20] | 100 | 30 | 90 | 30 | 100 | 40 | 90 | 100 | 80 | 100 | 100 | 80 | 100 | 100 | 30 | 90 | 30 | 90 | 100 | 100 | Plant response rating, Barnyardgrass [1, 10]: 30; Plant response rating, Corn (corn (Zea mays); [14]): 20; Plant response rating, Foxtail, Giant [2, 10]: 30; Plant response rating, Kochia (kochia (Kochia scoparia) [3]; [10]): 90; Plant response rating, Pigweed [4, 10]: 100; Plant response rating, Ragweed [5, 10]: 80; Plant response rating, Wheat [6, 14]: 20; Chickweed plant response rating [7, 18]: 98; Kochia plant response rating (kochia (Kochia scoparia) [8]; [15]): 50; Plant response rating, Kochia (kochia (Kochia scoparia) [8]; [16]): 90; Plant response rating, Kochia (kochia (Kochia scoparia) [8]; [17]): 100; Kochia plant response rating (kochia (Kochia scoparia) [8]; [18]): 80; Oat, Wild plant response rating [9, 15]: 0; Plant response rating, Oat, Wild [9, 16]: 25; Plant response rating, Oat, Wild [9, 17]: 40; Oat, Wild plant response rating [9, 18]: 5
2 | CCc1sc2c(C)cc(C)cc2c1-c1c(O)c(C)nn(C)c1=O [Compound 57] | 100 | 100 | 100 | 30 | 90 | 100 | 100 | 100 | 100 | 100 | 100 | 100 | 100 | 100 | 90 | 100 | 10 | 90 | 95 | 100 | Plant response rating, Barnyardgrass [1, 19]: 90; Plant response rating, Corn (corn (Zea mays); [20]): 20; Plant response rating, Foxtail, Giant [2, 19]: 80; Plant response rating, Kochia (kochia (Kochia scoparia) [3]; [19]): 80; Plant response rating, Pigweed [4, 19]: 100; Plant response rating, Ragweed [5, 19]: 100; Plant response rating, Wheat [6, 20]: 0; Chickweed plant response rating [7, 18]: 95; Kochia plant response rating (kochia (Kochia scoparia) [8]; [15]): 50; Plant response rating, Kochia (kochia (Kochia scoparia) [8]; [16]): 70; Plant response rating, Kochia (kochia (Kochia scoparia) [8]; [17]): 95; Kochia plant response rating (kochia (Kochia scoparia) [8]; [18]): 65; Oat, Wild plant response rating [9, 15]: 20; Plant response rating, Oat, Wild [9, 16]: 45; Plant response rating, Oat, Wild [9, 17]: 60; Oat, Wild plant response rating [9, 18]: 35
